# Legend:
# [1] = test system: mouse embryonic fibroblasts (MEFs); test: TGF-β1-induced transformation of mouse embryonic fibroblasts into myofibroblasts; format: cell-based
# From the text: (§1) In this example, cell models for in vitro fibrosis are respectively built to activate mouse hepatic stellate Cells (mHSCs, FIG. 13(B)), mouse embryonic fibroblasts (MEFs FIG. 13(C)), mouse adult liver, lung, and heart-derived primary mesenchymal cells (priMCs, FIG. 13(D)), and human hepatic stellate cells (hLX-2, FIG. 13(E)) into myofibroblasts through the induction of TGF-β1. The specific experimental procedure is as shown in FIG. 9A: a medium containing 10% serum is used for the initial cell culture; after 24 hours the medium is replaced with low serum medium (or pre-starvation treatment for 16 hours) while adding 3 ng/ml TGF-β1 with DMSO or Bleb (20 μM); after 7 days the expression of myofibroblast activation marker protein (Acta2), collagen (Col1a1, Col1a2, Col3a1, and Col1a2), and matrix metalloproteinases and inhibitors (collagenases: MmP8, and MmP13; gelatinases: MmP2, and MmP9; a metalloproteinase inhibitor: Timp1/2/3) are identified.
# [2] = test system: human fibroblasts; test: Cellular mechanical homeostasis and cell softening in human fibroblasts (phalloidin staining, immunofluorescence, quantitative PCR); format: cell-based
# From the text: FIG. 1A is a schematic diagram of laser confocal scanning.
# [3] = test system: human fibroblasts; test: Transcriptome sequencing of treated human fibroblasts; format: cell-based
# [4] = test system: CCl4 liver damage; test: Blood biochemistry, hepatocyte proliferation, apoptosis and liver function genes after CCl4 liver damage; format: in vivo, mice
# Procedure: Blood biochemical analysis (fasting 12-16 hours before sampling) further confirms that myosin inhibitor (−)-blebbistatin may reduce the content of liver damage indicators such as ALT, AST and GGT, as shown in FIG. 4A. Further, Alb-crexmTmG hybrid mice are used for fibrosis modeling with CCl4, wherein GFP is expressed in mature hepatocytes of the mice. […] In summary, the myosin inhibitor (−)-blebbistatin promotes liver regeneration by inhibiting fibrosis of liver damage, promoting hepatocyte proliferation, and reducing apoptosis, thereby maintaining liver function.
# [5] = test system: human hepatic stellate cells (hLX-2); test: TGF-β1-induced transformation of human hepatic stellate cells into myofibroblasts; format: cell-based; settings: 20 μM, 3 ng/ml TGF-β1, 7 days
# From the text: as §1
# [6] = test system: bile duct ligation-induced fibrosis; test: Bile duct ligation-induced hepatic fibrosis model; format: in vivo, mice
# Procedure: The ICR, C57Bl/6 mice used in the experiment are purchased from SPF (Beijing) Biotechnology Co., Ltd.; elbow tweezers, finger tweezers, scissors, needle holders, suture needles, suture threads are purchased from Asone Trading Co., Ltd.; antibiotics are purchased from Gibco (15240-062). 8 week-old female mice are used, and they are fasted for 24 hours before the experiment. The mice are anesthetized with 5% chloral hydrate, and intraperitoneally injected with 8 ml/kg. The mice are fixed after anesthesia, and an incision is made in the abdomen to expose the organs. The duodenum of the stomach end is found and gently pulled to find the bile duct, carefully peeling off the bile duct with tweezers, ligating the bile duct with suture thread, then adding antibiotics, and suturing to close the abdominal cavity. The mice are fasted for 12 hours after surgery. 14-20 days after surgery, the skin of the mice is observed to be yellow-green, and drug is administered to mice for treatment. The mice in the modeling group are evenly divided into two groups, and the mice of experimental group are intraperitoneally injected with (−)-blebbistatin. As for the administration method, (−)-blebbistatin is dissolved in DMSO; sequentially adding 2-5% DMSO (final concentration, volume ratio)+30% PEG400 (final concentration, volume ratio)+2% Tween 80 (final concentration, volume ratio), the mice of the control group are injected with a solvent without the small molecule but containing an equal amount of DMSO (denoted as “Con”).
structure (smiles),measurement,setting,value
Cc1ccc2c(c1)C(=O)[C@]1(O)CCN(c3ccccc3)C1=N2 [(−)-blebbistatin],TGF-β1 induced transformation into myofibroblasts and extracellular matrix synthesis,"[1]; 20 μM, 3 ng/ml TGF-β1, 7 days",significantly inhibits
same,stretched state / fibrous morphology of MEFs,"[1]; compared with DMSO, S-Bleb-OB 20 μM",may destroy the stretched state
same,TGF-β1-induced myofibroblast activation,"[1]; scheme as Example 9-1, S-Bleb-OB 20 μM",have an inhibitory effect
same,EZH2 protein level and localization,[2],down-regulated and it is localized at the cytoplasm
same,nucleus morphology,"[2]; 20 μM, vs DMSO control",irregular folds
same,stress fibers in the cell (phalloidin staining),"[2]; 20 μM, vs DMSO control",disintegrated
same,cells with obvious nuclear localization of stress effect protein YAP1/TAZ,[2]; after drug treatment,35%
same,proteins related to regulation of cellular mechanical hardness (quantitative PCR),[2]; after small molecule treatment,significantly down-regulated
same,modification of H3K27 trimethylation (immunofluorescence),[2]; day 4,significantly reduced
same,active transcriptional region labeled with fluorouridine,[2]; three biological replicates,also distributed near the periphery of the nucleus
same,heterochromatin HP1 proteins,[2]; vs DMSO control,the control group is significantly stronger than the experimental group
same,"DNA replication, homologous recombination, mismatch repair, nucleotide excision repair and base excision repair related genes","[3]; 5-50 μM, after 6 hours",significantly upregulated
same,important genes involved in homologous recombination,"[3]; 5-50 μM, after 6 hours",significantly upregulated
same,genes related to initiation of regeneration (such as FST) and neurogenesis-related genes,[3]; after induction for 22 days under the neural induction system,significantly upregulated
same,mRNA expression of general stress response genes,[3]; day 1 and day 2,begins to downregulate
same,"genes related to general stress response (HSP70 family, HSP90)",[3]; early 6 hours of the induction,upregulated
same,Alb expression in GFP-expressing hepatocytes,"[4]; Alb-cre x mTmG hybrid mice, CCl4 fibrosis modeling",most of the cells expressing GFP express Alb
same,"expression of hepatocyte-related, bile duct-related and proliferation-related genes (transcriptional level)",[4]; compared with the control group,significantly maintains high level expression
same,"content of liver damage indicators such as ALT, AST and GGT (blood biochemical analysis)",[4]; fasting 12-16 hours before sampling,reduce
same,apoptosis during liver damage (TUNEL staining),"[4]; mouse, in vivo",reduces
same,cell proliferation after liver damage (ALB/Ki-67 staining),"[4]; mouse, in vivo",significantly promotes
same,TGF-β1 induced transformation into myofibroblasts and extracellular matrix synthesis,[5],significantly inhibits
same,inhibitors of metalloproteinases,[5],down-regulation
same,metalloproteinases for degrading extracellular matrix,[5],promoting the up-regulation
same,accumulation of collagenous fibers (Sirius Red),[6]; after 15 days of treatment,significantly inhibited
same,proliferation of myofibroblasts (α-SMA staining),[6]; after 15 days of treatment,significantly inhibited
same,accumulation of collagenous fibers (Sirius Red),[6]; after 30 days of treatment,significantly inhibits
same,hepatocyte proliferation (Ki-67 staining),[6]; during the bile duct ligation process,promotes
same,state of the mice,[6]; intraperitoneal injection,more active and energetic

# — patent US11622964B2, “Method for destroying cellular mechanical homeostasis and promoting regeneration and repair of tissues and organs, and use thereof” (INSTITUTE OF ZOOLOGY, CHINESE ACADEMY OF SCIENCES, priority 2018, dated 2023)
